In ChEMBL document CHEMBL1201862, “PubChem BioAssay data set” (2004):
Active and inactive are the calls of the source.

Columns and labels:
[1] = target: Tyrosine-protein phosphatase non-receptor type 11 (Homo sapiens, UniProt Q06124); assay: PTPN11 enzyme inhibitors – biochemical, selectivity assay for STEP inhibitor project, dose response (AID 602367); format: functional; settings: read-out: IC50_Mean
[2] = target: Dual specificity protein phosphatase 3 (Homo sapiens, UniProt P51452); assay: VHR phosphatase inhibition, dose response, selectivity assay for STEP inhibitor project, biochemical (AID 602374); format: functional; settings: read-out: IC50_Mean
Chain of Dual specificity protein phosphatase 3 (P51452 whole entry): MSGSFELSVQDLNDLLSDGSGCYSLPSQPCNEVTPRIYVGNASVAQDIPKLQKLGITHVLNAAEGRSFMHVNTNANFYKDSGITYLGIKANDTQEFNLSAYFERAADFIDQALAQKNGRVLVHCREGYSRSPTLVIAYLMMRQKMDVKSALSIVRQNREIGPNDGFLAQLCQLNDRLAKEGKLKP

[3] = target: Tyrosine-protein phosphatase non-receptor type 5 (Homo sapiens, UniProt P54829); assay: PTPN5 enzyme inhibition – biochemical, fluorescence intensity, uHTS hits, confirmation (AID 602372); format: functional; settings: read-out: IC50_Mean
[4] = target: T1, Tyrosine-protein phosphatase non-receptor type 22 (Homo sapiens, UniProt Q9Y2R2); assay: lymphoid phosphatase LYP inhibitors – biochemical, selectivity assay for STEP inhibitor project, dose response (AID 624241); format: functional
T1 sequence (Q9Y2R2 whole entry): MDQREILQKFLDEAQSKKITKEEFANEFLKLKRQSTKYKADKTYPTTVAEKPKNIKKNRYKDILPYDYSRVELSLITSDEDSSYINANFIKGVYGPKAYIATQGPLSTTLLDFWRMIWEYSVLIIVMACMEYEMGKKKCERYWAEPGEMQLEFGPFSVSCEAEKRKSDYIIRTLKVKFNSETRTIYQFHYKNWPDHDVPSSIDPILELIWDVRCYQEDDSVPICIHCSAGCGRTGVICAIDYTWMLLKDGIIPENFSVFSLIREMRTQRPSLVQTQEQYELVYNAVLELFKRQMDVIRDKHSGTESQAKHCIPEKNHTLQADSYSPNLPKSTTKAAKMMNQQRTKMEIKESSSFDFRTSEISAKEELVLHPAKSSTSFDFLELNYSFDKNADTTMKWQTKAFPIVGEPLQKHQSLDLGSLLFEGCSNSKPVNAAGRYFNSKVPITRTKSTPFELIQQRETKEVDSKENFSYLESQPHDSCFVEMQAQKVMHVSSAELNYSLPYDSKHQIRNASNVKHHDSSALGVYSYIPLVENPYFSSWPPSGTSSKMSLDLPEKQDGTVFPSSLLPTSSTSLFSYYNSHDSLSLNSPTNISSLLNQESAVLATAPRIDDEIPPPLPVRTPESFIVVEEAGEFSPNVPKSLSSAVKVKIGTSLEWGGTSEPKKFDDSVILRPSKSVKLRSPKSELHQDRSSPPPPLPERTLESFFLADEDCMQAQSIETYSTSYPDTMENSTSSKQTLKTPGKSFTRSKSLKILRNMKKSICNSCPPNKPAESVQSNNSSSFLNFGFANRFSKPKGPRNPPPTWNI

[5] = target: T2, Aryl hydrocarbon receptor (Homo sapiens, UniProt P35869); settings: Potency;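 note: confirmatory quantitative high-throughput screen measuring activation of the AhR signaling pathway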
T2 sequence (P35869 whole entry): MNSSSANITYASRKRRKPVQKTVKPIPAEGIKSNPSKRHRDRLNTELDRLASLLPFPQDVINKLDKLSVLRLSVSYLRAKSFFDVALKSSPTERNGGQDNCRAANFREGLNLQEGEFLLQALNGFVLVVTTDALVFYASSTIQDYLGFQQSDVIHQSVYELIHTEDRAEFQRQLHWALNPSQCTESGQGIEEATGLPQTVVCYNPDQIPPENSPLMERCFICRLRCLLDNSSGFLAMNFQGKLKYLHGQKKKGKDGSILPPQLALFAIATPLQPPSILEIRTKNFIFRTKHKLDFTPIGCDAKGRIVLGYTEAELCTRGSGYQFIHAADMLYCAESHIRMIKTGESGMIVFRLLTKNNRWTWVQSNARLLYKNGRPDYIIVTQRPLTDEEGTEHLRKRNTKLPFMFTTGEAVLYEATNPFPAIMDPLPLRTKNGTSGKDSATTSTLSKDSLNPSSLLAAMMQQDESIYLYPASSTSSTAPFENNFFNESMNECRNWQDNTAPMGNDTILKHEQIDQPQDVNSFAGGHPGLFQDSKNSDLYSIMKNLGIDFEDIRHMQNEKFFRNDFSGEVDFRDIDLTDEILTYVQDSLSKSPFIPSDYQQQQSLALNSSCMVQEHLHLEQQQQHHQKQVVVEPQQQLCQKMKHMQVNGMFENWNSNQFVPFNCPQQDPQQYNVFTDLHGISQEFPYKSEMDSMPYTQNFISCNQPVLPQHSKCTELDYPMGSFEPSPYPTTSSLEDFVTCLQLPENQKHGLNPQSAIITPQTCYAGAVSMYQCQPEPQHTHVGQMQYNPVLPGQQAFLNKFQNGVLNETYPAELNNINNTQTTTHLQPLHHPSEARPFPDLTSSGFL

Streptococcus = assay: GAS UMAA2166 growth inhibition – luminescence, BacTiterGlo, counter-screen for streptokinase expression inhibitor project, dose response (AID 1915); format: functional, organism-based;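 note: potency for reduction of bacterial viability or growth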
[6] = target: Low molecular weight phosphotyrosine protein phosphatase (Homo sapiens, UniProt P24666); format: functional; settings: read-out: IC50_Mean;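 note: Dose-response confirmation assay measuring inhibition of LMPTP enzyme activity by fluorescence intensity read-out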
Chain of Low molecular weight phosphotyrosine protein phosphatase (P24666 whole entry): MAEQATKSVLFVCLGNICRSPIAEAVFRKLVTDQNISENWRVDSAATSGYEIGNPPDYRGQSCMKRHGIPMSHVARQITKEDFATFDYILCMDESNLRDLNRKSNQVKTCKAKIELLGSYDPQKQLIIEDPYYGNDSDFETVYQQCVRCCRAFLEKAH

Streptokinase A = target: T3, Streptokinase A (Streptococcus pyogenes serotype M1, UniProt P10520); assay: viability-normalized secreted streptokinase activity reduction – plasminogen activation absorbance, OD405, dose response (AID 1914); format: functional, Streptococcus pyogenes M1 GAS;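 note: secreted streptokinase activity via plasminogen activation per viability signal from cell pellet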
T3 sequence (P10520 whole entry): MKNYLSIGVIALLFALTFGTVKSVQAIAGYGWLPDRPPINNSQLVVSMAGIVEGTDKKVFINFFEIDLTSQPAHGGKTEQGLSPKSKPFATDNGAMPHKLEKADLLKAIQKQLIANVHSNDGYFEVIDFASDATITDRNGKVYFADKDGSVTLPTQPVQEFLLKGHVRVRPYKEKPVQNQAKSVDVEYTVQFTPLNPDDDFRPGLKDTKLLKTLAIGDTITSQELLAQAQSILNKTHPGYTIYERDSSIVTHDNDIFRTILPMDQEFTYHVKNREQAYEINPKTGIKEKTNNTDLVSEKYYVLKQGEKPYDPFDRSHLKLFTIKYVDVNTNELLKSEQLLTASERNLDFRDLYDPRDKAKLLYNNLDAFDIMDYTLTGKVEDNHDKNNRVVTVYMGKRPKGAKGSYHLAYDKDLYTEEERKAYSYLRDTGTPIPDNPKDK

[7] = system: Streptococcus sp. 'group A'; assay: Streptococcus pyogenes SK(-)GAS viability under kanamycin – luminescence, BacTiterGlo, confirmation, counter-screen for streptokinase expression inhibitor project, dose response (AID 1900); format: functional, organism-based
cells [8] = format: functional, cell-based
[9] = Luminescence Cell-Based Dose Response HTS to Identify Inhibitors of 5'UTR Stem-Loop Driven Prion Protein mRNA Translation in H4 Neuroglioblastoma Cells. [Related pubchem assays: 1827 (Project Summary), 1813 (Primary HTS)]; format: functional
[10] = reduction of Shn3 3'UTR-driven luciferase in osteoblasts – cell-based, Clone20 osteoblasts, firefly luciferase, cherry-picked, dose response (AID 624132); format: functional;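 note: firefly luciferase luminescence from reporter carrying the Shn3 3'UTR in osteoblasts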
[11] = NIH3T3 cell viability loss, ATP content – CellTiter-Glo luminescence, cherry-pick, set 2, cytotoxicity control for HSP40 inhibitor project, dose response (AID 624265); format: functional
cells [12] = format: functional, cell-based; remark: listed apart in the source
[13] = alpha-synuclein stem-loop luciferase translation blockers – H4 neuroglioma cells, luminescence, confirmation (AID 1988); format: functional, cell-based
INS1 = assay: INS-1E survival protection against cytokine death – cell-based, luminescence, retest, dose response (AID 449756); format: functional; settings: Rattus norvegicus;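 note: cell death triggered by IL-1 beta plus TNF-alpha plus IFN-gamma mixture; protective hits raise ATP signal compared with cytokine alone wells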
[14] = non-specific 3'UTR reporter inhibition in Clone20-Shn3RL – cell-based, Renilla luciferase, cherry-picked, counter-screen for Shn3 inhibitor project, dose response (AID 624133); format: functional
[15] = Trypanosoma cruzi growth suppression in host cells – NIH3T3 host cells, beta-gal luminescence, confirmation (AID 2044); format: functional, cell-based;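 note: intracellular parasites grown in NIH/3T3 mouse fibroblasts as host cells; luminescent beta-galactosidase reporter signal from transgenic T. cruzi replicating inside host cells; inhibitors lower the luminescence signal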
[16] = NIH3T3 cell viability loss – ATP luminescence, mouse fibroblasts, counter-screen, dose response (AID 2010); format: functional, cell-based;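 note: cells exposed to compound for about 90 hours before reading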
[17] = target: Photoreceptor-specific nuclear receptor (Homo sapiens, UniProt Q9Y5X4); format: functional, cell-based;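 note: CHO-S cells with Gal4-NCOR and VP16-NR2E3 two-hybrid luciferase reporter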
Chain of Photoreceptor-specific nuclear receptor (Q9Y5X4 whole entry, the tested form may be a part): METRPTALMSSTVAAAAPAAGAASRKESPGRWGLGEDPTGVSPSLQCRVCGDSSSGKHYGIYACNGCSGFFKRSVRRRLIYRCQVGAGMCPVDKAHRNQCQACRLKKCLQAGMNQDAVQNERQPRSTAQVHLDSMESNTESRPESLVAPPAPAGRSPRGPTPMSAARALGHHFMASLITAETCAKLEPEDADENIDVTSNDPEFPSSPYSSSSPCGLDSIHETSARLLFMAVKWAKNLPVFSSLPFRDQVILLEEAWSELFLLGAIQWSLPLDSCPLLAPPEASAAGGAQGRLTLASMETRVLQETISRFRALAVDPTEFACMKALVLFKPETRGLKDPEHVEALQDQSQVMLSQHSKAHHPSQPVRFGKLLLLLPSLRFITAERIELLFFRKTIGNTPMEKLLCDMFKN

[18] = loss of viability in HepG2 cells – cell-based, CellTiter-Glo, cherry-picked, cytotoxicity control for Shn3 inhibitor project, dose response (AID 624134); format: functional
[19] = luciferase reporter signal suppression in cells – H4 neuroglioma cells, luminescence, dose response (AID 1990); format: functional, cell-based
[20] = viability of HCT116 lacking mutant beta-catenin – cell-based, human colon tumor, dose response (AID 1045); format: functional;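 note: HCT116 colon tumor cells with beta catenin knocked out; cells exposed to compound for 60 hours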
Nonstructural protein 1 = Nonstructural protein 1 (Influenza A virus, UniProt Q194T2); format: functional, Influenza A virus (A/California/07/2009(H1N1))
Chain of Nonstructural protein 1 (Q194T2 whole entry, the tested form may be a part): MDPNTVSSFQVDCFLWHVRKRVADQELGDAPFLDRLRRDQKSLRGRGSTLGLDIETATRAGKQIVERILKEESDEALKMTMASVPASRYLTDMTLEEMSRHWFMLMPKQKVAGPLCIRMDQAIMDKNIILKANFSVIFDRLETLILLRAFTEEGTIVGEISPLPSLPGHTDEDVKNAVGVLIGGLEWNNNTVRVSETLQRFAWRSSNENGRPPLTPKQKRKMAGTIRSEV

[21] = target: Arf-GAP with SH3 domain, ANK repeat and PH domain-containing protein 1 (Homo sapiens, UniProt Q9ULH1); format: functional;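 note: biochemical fluorescence polarization dose–response screen measuring inhibition of ASAP1; ASAP1 GAP domain stimulating GTP hydrolysis by truncated human ARF1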
Chain of Arf-GAP with SH3 domain, ANK repeat and PH domain-containing protein 1 (Q9ULH1 whole entry, the tested form may be a part): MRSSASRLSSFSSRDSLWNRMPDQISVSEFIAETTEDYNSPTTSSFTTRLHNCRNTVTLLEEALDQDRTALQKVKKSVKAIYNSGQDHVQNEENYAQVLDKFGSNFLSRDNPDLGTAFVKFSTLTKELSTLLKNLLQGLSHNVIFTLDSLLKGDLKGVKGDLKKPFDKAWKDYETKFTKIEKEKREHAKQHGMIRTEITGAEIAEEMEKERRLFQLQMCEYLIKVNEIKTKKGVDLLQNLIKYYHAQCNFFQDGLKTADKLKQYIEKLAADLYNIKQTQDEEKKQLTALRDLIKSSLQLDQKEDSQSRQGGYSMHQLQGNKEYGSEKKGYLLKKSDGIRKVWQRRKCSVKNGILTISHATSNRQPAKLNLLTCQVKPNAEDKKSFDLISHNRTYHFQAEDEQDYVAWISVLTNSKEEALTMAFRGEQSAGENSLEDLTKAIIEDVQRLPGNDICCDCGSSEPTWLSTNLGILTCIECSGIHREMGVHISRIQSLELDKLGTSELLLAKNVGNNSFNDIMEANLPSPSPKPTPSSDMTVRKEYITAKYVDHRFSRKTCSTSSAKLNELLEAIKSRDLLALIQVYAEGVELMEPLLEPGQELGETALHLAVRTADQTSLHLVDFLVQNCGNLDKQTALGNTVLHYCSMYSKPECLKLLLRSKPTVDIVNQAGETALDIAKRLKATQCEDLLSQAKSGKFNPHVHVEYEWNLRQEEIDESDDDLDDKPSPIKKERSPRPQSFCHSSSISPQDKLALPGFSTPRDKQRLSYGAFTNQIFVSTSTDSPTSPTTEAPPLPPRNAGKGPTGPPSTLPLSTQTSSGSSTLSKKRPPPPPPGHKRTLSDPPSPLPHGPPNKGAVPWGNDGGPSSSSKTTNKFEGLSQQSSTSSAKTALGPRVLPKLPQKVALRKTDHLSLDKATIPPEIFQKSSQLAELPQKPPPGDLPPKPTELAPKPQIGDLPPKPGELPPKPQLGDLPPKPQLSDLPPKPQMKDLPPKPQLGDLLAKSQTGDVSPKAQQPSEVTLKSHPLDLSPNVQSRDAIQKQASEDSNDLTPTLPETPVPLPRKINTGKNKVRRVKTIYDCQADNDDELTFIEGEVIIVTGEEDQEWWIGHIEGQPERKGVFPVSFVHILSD

[22] = viability of PTEN-deleted HCT116 cells – cell-based, HCT116 PTEN knockout, dose response (AID 1047); format: functional;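 note: HCT116 colon tumor cells with PTEN knocked out; cells exposed to compound for 60 hours before readout; potency for loss of cell viability measured by luminescence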
[23] = target: T4, DNA repair protein RAD52 homolog (Homo sapiens, UniProt P43351); format: functional, biochemical
T4 sequence (P43351 whole entry): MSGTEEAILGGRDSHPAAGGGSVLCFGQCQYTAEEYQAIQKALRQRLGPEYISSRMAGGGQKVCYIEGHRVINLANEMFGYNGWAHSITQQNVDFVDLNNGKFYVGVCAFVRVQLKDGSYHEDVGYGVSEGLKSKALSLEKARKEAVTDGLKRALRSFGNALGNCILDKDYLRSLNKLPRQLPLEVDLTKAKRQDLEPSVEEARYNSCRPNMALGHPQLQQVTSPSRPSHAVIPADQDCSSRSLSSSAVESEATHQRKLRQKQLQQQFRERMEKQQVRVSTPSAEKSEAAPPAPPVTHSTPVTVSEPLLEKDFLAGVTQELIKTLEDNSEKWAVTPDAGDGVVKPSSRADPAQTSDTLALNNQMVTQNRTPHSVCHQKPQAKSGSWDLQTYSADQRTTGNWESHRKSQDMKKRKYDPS

[24] = nonselective StAR promoter luciferase inhibitors – cell-based, luminescence, luciferase reporter, counter-screen for LRH-1 inverse agonist project, dose response (AID 651969); format: functional
[25] = target: Nuclear receptor subfamily 5 group A member 2 (Homo sapiens, UniProt O00482); format: functional, cell-based;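 note: HEK293T cells transfected with LRH-1 and a StAR promoter luciferase reporter; potency for inhibitors that lower LRH-1 driven reporter light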
Chain of Nuclear receptor subfamily 5 group A member 2 (O00482 whole entry): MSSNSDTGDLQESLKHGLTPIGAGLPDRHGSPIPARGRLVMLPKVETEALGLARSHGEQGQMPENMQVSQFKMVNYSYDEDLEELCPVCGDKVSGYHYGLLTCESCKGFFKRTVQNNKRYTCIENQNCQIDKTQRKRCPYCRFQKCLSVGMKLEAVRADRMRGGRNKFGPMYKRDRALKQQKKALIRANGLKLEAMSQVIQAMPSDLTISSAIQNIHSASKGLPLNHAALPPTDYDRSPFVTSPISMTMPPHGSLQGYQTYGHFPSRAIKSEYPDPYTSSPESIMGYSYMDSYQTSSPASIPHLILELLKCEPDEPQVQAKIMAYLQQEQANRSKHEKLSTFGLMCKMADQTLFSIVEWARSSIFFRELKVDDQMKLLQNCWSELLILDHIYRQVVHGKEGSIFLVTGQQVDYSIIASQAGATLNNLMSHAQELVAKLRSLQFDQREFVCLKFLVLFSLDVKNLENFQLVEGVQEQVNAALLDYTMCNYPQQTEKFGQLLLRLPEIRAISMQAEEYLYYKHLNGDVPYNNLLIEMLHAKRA

Steroidogenic factor 1 = Steroidogenic factor 1 (Homo sapiens, UniProt Q13285); assay: Counterscreen for inverse agonists of the liver receptor homolog-1 (LRH-1; NR5A2): Luminescence-based cell-based high throughput dose response assay to identify inverse agonists of the Steroidogenic Factor 1 Nuclear Receptor (SF1; NR5A1).; format: functional
Chain of Steroidogenic factor 1 (Q13285 whole entry): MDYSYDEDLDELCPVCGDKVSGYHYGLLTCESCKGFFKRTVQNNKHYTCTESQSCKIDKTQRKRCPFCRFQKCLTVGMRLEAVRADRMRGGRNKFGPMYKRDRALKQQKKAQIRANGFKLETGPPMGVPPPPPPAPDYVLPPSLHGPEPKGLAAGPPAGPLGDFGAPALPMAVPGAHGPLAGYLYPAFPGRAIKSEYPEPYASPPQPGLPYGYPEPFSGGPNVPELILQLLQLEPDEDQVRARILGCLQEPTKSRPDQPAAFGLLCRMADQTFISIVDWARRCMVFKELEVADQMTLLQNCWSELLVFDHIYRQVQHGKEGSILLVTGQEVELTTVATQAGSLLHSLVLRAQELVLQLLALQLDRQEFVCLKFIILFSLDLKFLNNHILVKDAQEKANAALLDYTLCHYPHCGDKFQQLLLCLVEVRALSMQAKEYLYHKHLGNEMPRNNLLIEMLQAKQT

[26] = Counterscreen for inhibitors of Trypanosoma brucei methionyl tRNA synthetase (MetRS): Luminescence-based cell-based high throughput dose response assay to identify compounds that are cytotoxic to Jurkat human T lymphocyte cells.; format: functional
[27] = target: T5, Methionyl-tRNA synthetase, putative (Trypanosoma brucei brucei, UniProt Q38C91); format: functional, Trypanosoma brucei brucei strain 927/4 GUTat10.1
T5 sequence (Q38C91 whole entry): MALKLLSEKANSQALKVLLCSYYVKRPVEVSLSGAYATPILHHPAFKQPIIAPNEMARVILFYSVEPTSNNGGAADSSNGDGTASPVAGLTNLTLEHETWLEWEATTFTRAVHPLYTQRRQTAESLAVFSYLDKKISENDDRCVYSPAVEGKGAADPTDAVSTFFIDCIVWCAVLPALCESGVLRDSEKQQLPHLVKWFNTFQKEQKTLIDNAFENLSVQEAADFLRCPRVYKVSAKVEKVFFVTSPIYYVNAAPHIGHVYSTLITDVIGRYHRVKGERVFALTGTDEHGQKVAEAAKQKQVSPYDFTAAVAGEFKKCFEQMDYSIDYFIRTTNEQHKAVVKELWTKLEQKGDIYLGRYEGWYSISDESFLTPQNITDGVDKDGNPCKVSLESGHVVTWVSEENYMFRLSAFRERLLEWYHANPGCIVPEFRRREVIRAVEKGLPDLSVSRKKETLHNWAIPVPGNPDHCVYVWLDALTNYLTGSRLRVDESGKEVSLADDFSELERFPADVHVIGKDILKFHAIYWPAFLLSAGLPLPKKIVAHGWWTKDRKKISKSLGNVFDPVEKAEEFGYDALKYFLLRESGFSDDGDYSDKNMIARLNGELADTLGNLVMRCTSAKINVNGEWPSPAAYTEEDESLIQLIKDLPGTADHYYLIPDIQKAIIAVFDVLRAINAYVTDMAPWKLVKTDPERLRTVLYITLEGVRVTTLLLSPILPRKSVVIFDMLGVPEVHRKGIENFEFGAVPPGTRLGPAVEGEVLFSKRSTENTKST

[28] = target: T5, Methionyl-tRNA synthetase, putative; format: functional, Trypanosoma brucei brucei strain 927/4 GUTat10.1; remark: listed apart in the source

Chain of Tyrosine-protein phosphatase non-receptor type 11 (Q06124 whole entry): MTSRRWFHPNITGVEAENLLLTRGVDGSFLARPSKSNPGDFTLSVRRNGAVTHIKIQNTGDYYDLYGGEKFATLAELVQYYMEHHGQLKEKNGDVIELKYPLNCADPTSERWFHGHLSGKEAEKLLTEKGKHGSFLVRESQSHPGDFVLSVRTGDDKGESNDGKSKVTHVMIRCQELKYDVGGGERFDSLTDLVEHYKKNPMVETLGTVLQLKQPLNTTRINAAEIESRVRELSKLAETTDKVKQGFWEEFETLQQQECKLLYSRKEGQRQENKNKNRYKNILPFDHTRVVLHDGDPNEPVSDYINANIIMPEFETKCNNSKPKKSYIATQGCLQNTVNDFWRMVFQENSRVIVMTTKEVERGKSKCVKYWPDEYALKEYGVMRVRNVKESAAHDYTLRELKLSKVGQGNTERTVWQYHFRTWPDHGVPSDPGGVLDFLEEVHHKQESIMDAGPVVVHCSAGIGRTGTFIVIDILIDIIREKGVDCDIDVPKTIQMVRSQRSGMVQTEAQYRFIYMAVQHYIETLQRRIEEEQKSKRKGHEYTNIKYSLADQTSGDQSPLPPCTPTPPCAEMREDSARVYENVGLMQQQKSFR

SMILES: N#CNc1nc(O)cc(=O)[nH]1
- IC50 [1]: 2.2 µM (active)
- IC50 [2]: 1.24 µM (active)
- IC50 [3]: 7.69 µM (active)
- IC50 [4]: 11.5 µM (active)

SMILES: CC1(C)C(C=C(Cl)Cl)C1C(=O)OCc1cccc(Oc2ccccc2)c1 (stereo not given) [PERMETHRIN]
- AC50 [5]: 44.7 µM (inconclusive)

SMILES: CCn1cc(C(=O)O)c(=O)c2cc(F)c(N3CCN(C(=S)NC(=O)c4cc(OC)cc(OC)c4)CC3)cc21
- EC50 (Streptococcus): 30.2 µM (active)
- IC50 [6]: 1.47 µM (active)
- EC50 (Streptokinase A): > 150 µM (not active)
- EC50 [7]: 2.89 µM (active)

SMILES: COc1cnc(-c2ccccn2)nc1N(C)c1ccccc1
- EC50 (cells [8]): 8.25 µM (active)
- EC50 (Streptococcus): 11 µM (active)
- EC50 [9]: 7.24 µM (active)
- AC50 [10]: 1.83 µM (active)
- AbsAC35_uM [11]: 62.35 µM
- EC50 (cells [12]): > 350 µM (not active)
- EC50 [13]: > 120 µM (not active)
- AC50 (INS1): 4.34 µM (active)
- AC50 [14]: 0.92 µM (active)
- EC50 [15]: 1.89 µM (active)
- EC50 [16]: 5.78 µM (active)
- IC50 [17]: 4.58 µM (active)
- AC50 [18]: 4.02 µM (active)
- EC50 [7]: 4.74 µM (active)
- EC50 [19]: 8.68 µM (active)

SMILES: CCC(/C=C1\Sc2ccc(OC)cc2N1CCO)=C\c1sc2ccc(OC)cc2[n+]1CCO
- EC50 [20]: 5.82 µM (active)
- IC50 (Nonstructural protein 1): 5.11 µM (active)
- IC50 [21]: 165 µM (inactive)
- EC50 [22]: 5.7 µM (active)
- AC50 [23]: 1.77 µM (active)

SMILES: COc1cc([N+](=O)[O-])ccc1NC(=O)Cn1ccsc1=N
- IC50 [24]: 35.9 µM (inactive)
- IC50 [25]: 35.9 µM (inactive)
- IC50 (Steroidogenic factor 1): 1.95 µM (active)

SMILES: O=C(CCCOc1ccc(Cl)cc1Cl)N/N=C/c1ccco1
- IC50 [26]: 83.3 µM (inactive)
- IC50 [27]: 12.7 µM (inactive)
- IC50 [28]: 12 µM (inactive)
